Experimental findings from patent publication US8703768B2, “Nitrogen containing heteroaryl compounds” (Hoffmann-La Roche Inc., priority 2010, dated 2014) are described below.

The test deals with human PDE10A (Homo sapiens (Human), UniProt Q9Y233). Put plainly: human PDE10A full length Scintillation Proximity Assay (SPA). The test is classed as biochemical. To be noted: 50 nM cGMP and 50 nM [3H]-cGMP, 20 minutes at room temperature; read-out: PDE10A inhibition IC50. Put shortly: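 Radiometric SPA read-out: after 20 min at room temperature with [^3H]-cGMP/cGMP substrate, zinc sulphate (18 mM) bead stop reagent added and counts read after 1 h. Non-specific signal defined without enzyme; full-length protein used.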
human PDE10A, sequence (Q9Y233 other isoform, or with tags, fused parts or gaps): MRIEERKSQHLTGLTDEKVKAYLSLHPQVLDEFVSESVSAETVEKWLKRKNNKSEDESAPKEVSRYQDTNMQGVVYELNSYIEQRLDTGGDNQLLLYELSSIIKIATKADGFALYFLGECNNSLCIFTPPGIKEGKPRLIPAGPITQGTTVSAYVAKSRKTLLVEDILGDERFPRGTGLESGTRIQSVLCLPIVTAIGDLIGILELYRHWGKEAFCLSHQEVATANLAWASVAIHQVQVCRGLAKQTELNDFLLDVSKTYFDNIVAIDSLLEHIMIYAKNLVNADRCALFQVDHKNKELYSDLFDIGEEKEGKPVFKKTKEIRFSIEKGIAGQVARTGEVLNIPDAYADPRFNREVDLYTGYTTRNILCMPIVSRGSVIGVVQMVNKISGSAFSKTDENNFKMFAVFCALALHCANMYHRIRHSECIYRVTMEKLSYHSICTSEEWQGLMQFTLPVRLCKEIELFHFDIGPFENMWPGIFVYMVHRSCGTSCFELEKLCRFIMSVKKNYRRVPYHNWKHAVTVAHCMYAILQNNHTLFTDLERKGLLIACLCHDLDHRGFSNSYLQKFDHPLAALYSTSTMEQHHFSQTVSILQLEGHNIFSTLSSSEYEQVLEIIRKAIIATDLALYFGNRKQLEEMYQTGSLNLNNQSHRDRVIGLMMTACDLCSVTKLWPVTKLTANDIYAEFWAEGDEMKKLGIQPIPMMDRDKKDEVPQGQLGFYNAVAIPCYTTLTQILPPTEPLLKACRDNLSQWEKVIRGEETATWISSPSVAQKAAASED

Turning to `CC(C)N(C)C(=O)c1nn(C)cc1NC(=O)c1nc(C2CC2)ccc1Nc1cncnc1` [Example 20, 6-Cyclopropyl-3-(pyrimidin-5-ylamino)-pyridine-2-carboxylic acid [3-(isopropyl-methyl-carbamoyl)-1-methyl-1H-pyrazol-4-yl]-amide], the concentration for half-maximal inhibition (IC50) is 22.1 nM. As to `CC(C)(O)CNC(=O)c1c(NC(=O)c2nc(C3CC3)cnc2Nc2cncnc2)ccc(F)c1F` [Example 318, 6-Cyclopropyl-3-(pyrimidin-5-ylamino)-pyrazine-2-carboxylic acid [3,4-difluoro-2-(2-hydroxy-2-methyl-propylcarbamoyl)-phenyl]-amide], the concentration for half-maximal inhibition (IC50) was determined as 4.6 nM. Consider `CNC(=O)c1c(NC(=O)c2nc(C3CC3)cnc2Nc2cncnc2)cccc1OC` [Example 192, 6-Cyclopropyl-3-(pyrimidin-5-ylamino)-pyrazine-2-carboxylic acid (3-methoxy-2-methylcarbamoyl-phenyl)-amide], for which the half-inhibitory concentration (IC50) was found to be 3.1 nM.

On to `O=C(NCCO)c1ncccc1NC(=O)c1nc(C2CC2)cnc1Nc1cncnc1` [Example 271, 6-Cyclopropyl-3-(pyrimidin-5-ylamino)-pyrazine-2-carboxylic acid [2-(2-hydroxy-ethylcarbamoyl)-pyridin-3-yl]-amide], for which the concentration for half-maximal inhibition (IC50) came out at 0.4 nM. `Cc1ncc(Nc2cncnc2)c(C(=O)Nc2cn(C)nc2C(=O)NCC(C)(C)O)n1` [Example 112, N-(3-(2-Hydroxy-2-methylpropylcarbamoyl)-1-methyl-1H-pyrazol-4-yl)-2-methyl-5-(pyrimidin-5-ylamino)pyrimidine-4-carboxamide]: the half-inhibitory concentration (IC50) came to 79.6 nM. As to `CC(C)N(C)C(=O)c1c(NC(=O)c2nc(C3CC3)cnc2Nc2cncnc2)cnn1C` [Example 227, 6-Cyclopropyl-3-(pyrimidin-5-ylamino)-pyrazine-2-carboxylic acid [5-(isopropyl-methyl-carbamoyl)-1-methyl-1H-pyrazol-4-yl]-amide], the half-maximal inhibitory concentration (IC50) came to 64.1 nM. With `CN(CCO)C(=O)c1ncccc1NC(=O)c1nc(C2CC2)cnc1Nc1cncnc1` [Example 269, 6-Cyclopropyl-3-(pyrimidin-5-ylamino)-pyrazine-2-carboxylic acid {2-[(2-hydroxy-ethyl)-methyl-carbamoyl]-pyridin-3-yl}-amide] the figure was 12.7 nM; with `CNC(=O)c1c(NC(=O)c2nc(C3CC3)ccc2Nc2cncnc2)cnn1C` [Example 148, 6-Cyclopropyl-3-(pyrimidin-5-ylamino)-pyridine-2-carboxylic acid (1-methyl-5-methylcarbamoyl-1H-pyrazol-4-yl)-amide], 14.4 nM; with `O=C(Nc1cncnc1C(=O)N1CCCCC1)c1nc(C2CC2)cnc1Nc1cncnc1` [Example 212, 6-Cyclopropyl-3-(pyrimidin-5-ylamino)-pyrazine-2-carboxylic acid [4-(piperidine-1-carbonyl)-pyrimidin-5-yl]-amide], 81.2 nM. With `Cn1cc(NC(=O)c2nc(C3CC3)ccc2Nc2cncnc2)c(C(=O)N2CCC(O)C2)n1` (stereo not shown) [Example 44, 6-Cyclopropyl-3-(pyrimidin-5-ylamino)-pyridine-2-carboxylic acid [3-(3-hydroxy-pyrrolidine-1-carbonyl)-1-methyl-1H-pyrazol-4-yl]-amide] the figure was 27.4 nM; with `CC(C)c1ccc(NC(=O)c2nc(C3CC3)cnc2Nc2cncnc2)c(C(=O)NCC(C)(C)O)c1` [Example 207, 6-Cyclopropyl-3-(pyrimidin-5-ylamino)-pyrazine-2-carboxylic acid [2-(2-hydroxy-2-methyl-propylcarbamoyl)-4-isopropyl-phenyl]-amide], 1.1 nM; with `Cn1cc(NC(=O)c2nc(C3CC3)ccc2Nc2cncnc2)c(C(=O)NCC(O)CO)n1` (stereo not shown) [Example 42, 6-Cyclopropyl-3-(pyrimidin-5-ylamino)-pyridine-2-carboxylic acid [3-(2,3-dihydroxy-propylcarbamoyl)-1-methyl-1H-pyrazol-4-yl]-amide], 8.1 nM. On to `Cn1ncc(NC(=O)c2nc(C3CC3)cnc2Nc2cncnc2)c1C(=O)NCC(O)C(F)(F)F` (stereo not shown) [Example 146, 6-Cyclopropyl-3-(pyrimidin-5-ylamino)-pyrazine-2-carboxylic acid [1-methyl-5-(3,3,3-trifluoro-2-hydroxy-propylcarbamoyl)-1H-pyrazol-4-yl]-amide], for which the half-inhibitory concentration (IC50) turned out to be 1.7 nM. In the case of `CNC(=O)c1c(NC(=O)c2nc(C3CC3)cnc2Nc2cncnc2)ccc(F)c1F` [Example 317, 6-Cyclopropyl-3-(pyrimidin-5-ylamino)-pyrazine-2-carboxylic acid (3,4-difluoro-2-methylcarbamoyl-phenyl)-amide], the 50% inhibitory concentration (IC50) came out at 2.7 nM. For `CC(C)n1ncc(NC(=O)c2nc(C3CC3)cnc2Nc2cncnc2)c1C(=O)NCC(C)(C)O` [Example 138, 6-Cyclopropyl-3-(pyrimidin-5-ylamino)-pyrazine-2-carboxylic acid [5-(2-hydroxy-2-methyl-propylcarbamoyl)-1-isopropyl-1H-pyrazol-4-yl]-amide], the concentration for half-maximal inhibition (IC50) was 24.9 nM.

Consider `CNC(=O)c1nn(C)cc1NC(=O)c1nc(C2CC2)ccc1Nc1cncnc1` [Example 2, 6-Cyclopropyl-3-(pyrimidin-5-ylamino)-pyridine-2-carboxylic acid (1-methyl-3-methylcarbamoyl-1H-pyrazol-4-yl)-amide], for which the IC50 stood at 4.6 nM. With `Cn1cc(NC(=O)c2nc(C3CC3)ccc2Nc2cncnc2)c(C(=O)N2CC3(COC3)C2)n1` [Example 51, 6-Cyclopropyl-3-(pyrimidin-5-ylamino)-pyridine-2-carboxylic acid [1-methyl-3-(2-oxa-6-aza-spiro[3.3]heptane-6-carbonyl)-1H-pyrazol-4-yl]-amide] the figure was 58 nM.

For `CC(NC(=O)c1c(NC(=O)c2nc(C3CC3)cnc2Nc2cncnc2)cnn1C)C(F)(F)F` (stereo not shown) [Example 164, 6-Cyclopropyl-3-(pyrimidin-5-ylamino)-pyrazine-2-carboxylic acid [1-methyl-5-(2,2,2-trifluoro-1-methyl-ethylcarbamoyl)-1H-pyrazol-4-yl]-amide], the half-inhibitory concentration (IC50) was found to be 5.2 nM.

For the compound `CN1CCCC(NC(=O)c2c(NC(=O)c3nc(C4CC4)cnc3Nc3cncnc3)cnn2C)C1` (stereo not shown) [Example 241, 6-Cyclopropyl-3-(pyrimidin-5-ylamino)-pyrazine-2-carboxylic acid [1-methyl-5-(1-methyl-piperidin-3-ylcarbamoyl)-1H-pyrazol-4-yl]-amide], the half-inhibitory concentration (IC50) came out at 28.6 nM. With `CC(CO)NC(=O)c1ccncc1NC(=O)c1nc(C2CC2)ccc1Nc1cncnc1` (stereo not shown) [Example 66, 6-Cyclopropyl-3-(pyrimidin-5-ylamino)-pyridine-2-carboxylic acid [4-(2-hydroxy-1-methyl-ethylcarbamoyl)-pyridin-3-yl]-amide] the figure was 47.8 nM; with `O=C(NC1CCCCC1)c1ccncc1NC(=O)c1nc(C2CC2)ccc1Nc1cncnc1` [Example 78, 6-Cyclopropyl-3-(pyrimidin-5-ylamino)-pyridine-2-carboxylic acid (4-cyclohexylcarbamoyl-pyridin-3-yl)-amide], 2 nM. With `O=C(Nc1ccc(F)cc1C(=O)N1CCC1)c1nc(C2CC2)cnc1Nc1cncnc1` [Example 305, 6-Cyclopropyl-3-(pyrimidin-5-ylamino)-pyrazine-2-carboxylic acid [2-(azetidine-1-carbonyl)-4-fluoro-phenyl]-amide] the figure was 4.5 nM; with `COCC(C)NC(=O)c1nn(C)cc1NC(=O)c1nc(C2CC2)ccc1Nc1cncnc1` (stereo not shown) [Example 41, 6-Cyclopropyl-3-(pyrimidin-5-ylamino)-pyridine-2-carboxylic acid [3-(2-methoxy-1-methyl-ethylcarbamoyl)-1-methyl-1H-pyrazol-4-yl]-amide], 6.9 nM. With `O=C(NCC(O)CO)c1ccncc1NC(=O)c1nc(C2CC2)ccc1Nc1cncnc1` (stereo not shown) [Example 69, 6-Cyclopropyl-3-(pyrimidin-5-ylamino)-pyridine-2-carboxylic acid [4-(2,3-dihydroxy-propylcarbamoyl)-pyridin-3-yl]-amide] the figure was 4.1 nM; with `CCOC(=O)CCc1ccc(NC(=O)c2nc(C3CC3)cnc2Nc2cncnc2)c(C(=O)NC)c1` [Example 321, 3-(4-{[6-Cyclopropyl-3-(pyrimidin-5-ylamino)-pyrazine-2-carbonyl]-amino}-3-methylcarbamoyl-phenyl)-propionic acid ethyl ester], 0.6 nM.

In the case of `CC(C)(O)CNC(=O)c1ccc(F)c(F)c1NC(=O)c1nc(C2CC2)cnc1Nc1cncnc1` [Example 326, 6-Cyclopropyl-3-(pyrimidin-5-ylamino)-pyrazine-2-carboxylic acid [2,3-difluoro-6-(2-hydroxy-2-methyl-propylcarbamoyl)-phenyl]-amide], the IC50 amounted to 2.7 nM. In the case of `O=C(NC1COC1)c1ncccc1NC(=O)c1nc(C2CC2)cnc1Nc1cncnc1` [Example 277, 6-Cyclopropyl-3-(pyrimidin-5-ylamino)-pyrazine-2-carboxylic acid [2-(oxetan-3-ylcarbamoyl)-pyridin-3-yl]-amide], the half-inhibitory concentration (IC50) was determined as 2.7 nM. On to `CC(C)(O)CNC(=O)c1nc(C2CCCO2)ccc1NC(=O)c1nc(C2CC2)cnc1Nc1cncnc1` (stereo not shown) [Example 178, 6-Cyclopropyl-3-(pyrimidin-5-ylamino)-pyrazine-2-carboxylic acid [2-(2-hydroxy-2-methyl-propylcarbamoyl)-6-(tetrahydro-furan-2-yl)-pyridin-3-yl]-amide], for which the IC50 stood at 0.1 nM.
